Drawing on EP3235813A1, “AZA-TETRA-CYCLO DERIVATIVES” (CIDQO 2012, S.L., priority 2016, dated 2017), this text covers inhibition and IC50 for six compounds.

Each structure is given as a SMILES string.

The target in assay [1] is T1, 11β-HSD1 (Homo sapiens, UniProt P28845). Put plainly: Determination of 11β-HSD1 inhibition in HEK293 cells stably transfected with the 11β-HSD1 gene (cortisone to cortisol, LC/MS). In kind it is cell-based. Set-up: expressed in transfected cells; host or cells: HEK293 cells, stably transfected. The conditions noted are these: 10 µM compound, 300 nM cortisone, 2 hours, read-out: HSD1 % inh in cells (10 µM). The method, then:
11β-HSD1 activity was determined in cells that are incubated with substrate (cortisone) and product (cortisol) is determined by LC/MS. Cells are plated at 2 x 10^4 cells/well in a 96-well tissue culture microplate and incubated overnight at […] in 5% CO2 95% O2. Compounds to be tested are solubilized in 100% DMSO at 10 mM and serially diluted in water and 10% DMSO to final concentration 100 µM in 10% DMSO. 10 µl of each test dilution is dispensed into the well of a 96-well microplate (assay concentration of 10 µM). Low and high control wells contain 10 µl of 10% DMSO. A solution of DMEM is prepared containing 1% penicillin, 1% streptomycin and 300 nM cortisone. Medium is removed from cell assay plate and DMEM solution (100 µl) added to each well. Cells are incubated for 2 hours […] in 5% CO2 95% O2. Following incubation medium is removed from each well into 500 µl ethyl acetate mixed by vortex and incubated at room temperature for 5 minutes. A calibration curve of known concentrations of cortisol in assay medium is also set up and added to 500 µl ethyl acetate vortexed and incubated as above. The supernatant is removed to a 96 deep well plate and dried down under liquid nitrogen at 65°C. Each well is solubilised in 100 µl 70:30 H2O:ACN and removed to a 96 well v bottomed plate for LC/MS analysis.

In another assay the target is T2, 11β-HSD2 (Homo sapiens, UniProt P80365).
T2 construct: expressed in transfected cells; host or cells: HEK293 cells, stably transfected
T2 sequence (P80365 1-405): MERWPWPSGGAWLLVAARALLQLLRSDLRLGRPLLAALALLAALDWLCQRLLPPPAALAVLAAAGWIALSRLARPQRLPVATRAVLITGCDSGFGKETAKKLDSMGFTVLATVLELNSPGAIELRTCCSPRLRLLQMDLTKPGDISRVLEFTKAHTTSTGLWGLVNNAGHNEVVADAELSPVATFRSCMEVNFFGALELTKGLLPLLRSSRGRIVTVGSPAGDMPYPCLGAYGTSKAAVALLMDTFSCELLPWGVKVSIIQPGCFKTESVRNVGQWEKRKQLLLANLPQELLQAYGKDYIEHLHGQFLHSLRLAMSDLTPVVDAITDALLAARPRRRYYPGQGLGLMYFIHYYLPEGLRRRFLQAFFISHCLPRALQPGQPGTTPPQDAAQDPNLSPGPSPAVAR
Kind of assay: Determination of 11β-HSD2 inhibition in HEK293 cells stably transfected with the 11β-HSD2 gene (cortisol to cortisone, LC/MS). Type of assay: cell-based. To be noted: assay concentrations of 10, 1, 0.1 µM, 2 hours. As to the method:
11β-HSD2 activity was determined in cells that are incubated with substrate (cortisol) and product (cortisone) is determined by LC/MS. Cells are plated at 2 x 10^4 cells/well in a 96-well tissue culture microplate and incubated overnight at @37° C in 5% CO2 95% O2. Compounds to be tested are solubilized in 100% DMSO at 10 mM and serially diluted in water and 10% DMSO to final concentration in 10% DMSO. 10 µl of each test dilution is dispensed into the well of a 96-well microplate (assay concentrations of 10, 1, 0.1 µM). Low and high control wells contain 10 µl of 10% DMSO. A solution of DMEM is prepared containing 1% penicillin, 1% streptomycin and 300 nM […]. Medium is removed from cell assay plate and DMEM solution (100 µl) added to each well. Cells are incubated for 2 hours @37° C in 5% CO2 95% O2. Following incubation medium is removed from each well into 500 µl ethyl acetate mixed by vortex and incubated at room temperature for 5 minutes. A calibration curve of known concentrations of cortisone in assay medium is also set up and added to 500 µl ethyl acetate vortexed and incubated as above. The supernatant is removed to a 96 deep well plate and dried down under liquid nitrogen at 65°C. Each well is solubilised in 100 µl 70:30 H2O:AC and removed to a 96 well v bottomed plate for LC/MS analysis.

Assay [2] deals with T1, 11β-HSD1. Kind of assay: Determination of the 11β-HSD1 inhibition in Human Liver Microsomes (3H-cortisone to 3H-cortisol conversion, scintillation proximity assay). In kind it is biochemical. Set-up: tissue Celsis In-vitro Technologies; host or cells: mixed sex human liver microsomes. To be noted: mixed sex, 1 mM NADPH, 37°C, 30 minutes, read-out: HSD1 IC50 in HLM. As to the method: 11β-HSD1 activity was determined in mixed sex, Human Liver Microsomes (Celsis In-vitro Technologies) by measuring the conversion of ^3H-cortisone to ^3H-cortisol. Percentage inhibition was determined relative to a no inhibitor control. 5 µg of Human Liver microsomes was pre-incubated at 37°C for 10 minutes with inhibitor (assay concentrations of 1, 0.5, 0.1, 0.05, 0.01, 0.005, 0.001 and 0.0005 µM) and 1 mM NADPH in a final volume of 90 µL Krebs buffer. 10 µL of 200 nM ^3H-cortisone was then added followed by incubation for at 37°C for a further 30 minutes. The assay was terminated by rapid freezing on dry ice. ^3H-cortisone to ^3H-cortisol conversion was determined in 50 µL of the defrosted reaction by capturing liberated ^3H-cortisol on 100 µL 1:8000 dilution anti-cortisol (HyTest Ltd)-coated scintillation proximity assay beads (protein A-coated YSi, GE Healthcare). The percentages of inhibition at every tested concentration were analyzed using a non-linear regression curve fitting (variable slope) by using the software GraphPad Prism 5.0.
(In general: Microsomes from liver hold many membrane-bound enzymes, among them those of drug oxidation.)

T1 sequence (P28845 whole entry): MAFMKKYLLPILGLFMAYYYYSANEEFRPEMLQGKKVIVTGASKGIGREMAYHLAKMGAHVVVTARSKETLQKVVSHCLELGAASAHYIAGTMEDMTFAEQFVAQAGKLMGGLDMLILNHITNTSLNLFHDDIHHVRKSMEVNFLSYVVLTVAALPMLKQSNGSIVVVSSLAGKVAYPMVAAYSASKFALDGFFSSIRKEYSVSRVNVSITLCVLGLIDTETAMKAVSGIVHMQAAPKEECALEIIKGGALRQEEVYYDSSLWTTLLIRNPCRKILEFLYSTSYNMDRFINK

As a reminder, the IC50 is the concentration that inhibits the measured activity by half. For `CC(C)(C)C(=O)N1CC2[C@@H](C1)[C@H]1C=C[C@@H]2[C@@H]2C[C@H]12` (stereo partly drawn) [Example 7, 2,2-dimethyl-1-((4R,4aR,5aS,6S,6aS)-3,3a,4,4a,5,5a,6,6a-octahydro-4,6-ethenocyclopropa[f]isoindol-2(1H)-yl)propan-1-one], the inhibition at 10 µM on 11β-HSD1 [1] is 85%. Further, the concentration for half-maximal inhibition (IC50) against 11β-HSD2 was ≥ 1000 nM; on 11β-HSD1 [2], 500 to 1000 nM.

Take `Nc1c(Cl)cc(C(=O)N2CC3[C@@H](C2)[C@H]2C=C[C@@H]3[C@@H]3C[C@H]23)cc1Cl` (stereo partly drawn) [Example 9, (4-amino-3,5-dichlorophenyl)((4R,4aR,5aS,6S,6aS)-3,3a,4,4a,5,5a,6,6a-octahydro-4,6-ethenocyclopropa[f]isoindol-2(1H)-yl)methanone]: the inhibition at 10 µM on 11β-HSD1 [1] was determined as 77%. The values for the IC50 against 11β-HSD2 and at 11β-HSD1 [2] were 100 to 1000 nM and < 50 nM, respectively.

As to `O=C(C1CCCCC1)N1CC2[C@@H](C1)[C@H]1C=C[C@@H]2[C@@H]2C[C@H]12` (stereo partly drawn) [Example 1, cyclohexyl((4R,4aR,5aS,6S,6aS)-3,3a,4,4a,5,5a,6,6a-octahydro-4,6-etheno-cyclopropa[f]isoindol-2(1H)-yl)methanone], the inhibition at 10 µM on 11β-HSD1 [1] was determined as 100%. For the same compound, the IC50 on 11β-HSD2 was ≥ 1000 nM; on 11β-HSD1 [2], < 50 nM.

On to `O=C(C1CC=CCC1)N1CC2[C@@H](C1)[C@H]1C=C[C@@H]2[C@@H]2C[C@H]12` (stereo partly drawn) [Example 10, cyclohex-3-en-1-yl((4R,4aR,5aS,6S,6aS)-3,3a,4,4a,5,5a,6,6a-octahydro-4,6-ethenocyclopropa[f]isoindol-2(1H)-yl)methanone], for which the inhibition at 10 µM at 11β-HSD1 [1] is 41%. Further, the values for the half-maximal inhibitory concentration (IC50) against 11β-HSD2 and on 11β-HSD1 [2] were 100 to 1000 nM and < 50 nM, respectively.

`O=C(C1CCCCC1)N1CC2C3CCC(C4CC34)C2C1` [Example 2, cyclohexyl((4R,4aR,5aS,6S,6aS)-octahydro-4,6-ethanocyclopropa[f]iso-indol-2(1H)-yl)methanone]: at 11β-HSD1 [1], the inhibition at 10 µM is 100%. For the same compound, the values for the concentration for half-maximal inhibition (IC50) at 11β-HSD2 and at 11β-HSD1 [2] were < 100 nM and < 50 nM, respectively.

Turning to `N#Cc1ccc(N2CCN(c3ccc(C(=O)N4CC5[C@@H](C4)[C@H]4C=C[C@@H]5[C@@H]5C[C@H]45)cn3)CC2)cc1` (stereo partly drawn) [Example 15, 4-(4-(5-((4R,4aR,5aS,6S,6aS)-1,2,3,3a,4,4a,5,5a,6,6a-decahydro-4,6-ethenocyclopropa[f]isoindole-2-carbonyl)pyridin-2-yl)piperazin-1-yl)benzonitrile], on 11β-HSD1 [1], the inhibition at 10 µM was determined as 100%. The IC50 is ≥ 1000 nM on 11β-HSD2 and 50 to 500 nM on 11β-HSD1 [2].
